Test systems include T-47D breast; ACHN renal; SR leukemia; MDA-N; NCI-H23 lung; MOLT-4 leukemia; PC-3 prostate; NCI-H226 lung; UACC-257 melanoma; SF-539 CNS.
Assay in all cases: DTP human tumour cell line panel, 48 h

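Assay format: 96-well plates, 48-hour exposure. Definition used: TGI = concentration required for complete inhibition of growth.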

A word on the TGI: it is the concentration at which net growth stops.

`COc1ccccc1C1Nn2c(nc3ccccc3c2=O)N1c1ccc(C)cc1` (configuration not stated): the TGI stood at 21 µM in the assay on T-47D breast; 16.7 µM in the assay with ACHN renal; 6.43 µM in the assay with SR leukemia; 20.9 µM with MDA-N; 29.3 µM in the assay with NCI-H23 lung; 11.4 µM with MOLT-4 leukemia. Besides, the TGI in the assay on PC-3 prostate was determined as 10.8 µM; in the assay on NCI-H226 lung it was 9.94 µM; in the assay with UACC-257 melanoma, 43.3 µM; with SF-539 CNS, 12.1 µM.
With `CCn1c2ccc(C(=O)CCCN3CCCCC3)cc2c2cc(C(=O)CCCN3CCCCC3)ccc21`, the TGI in the assay on T-47D breast was determined as 49.9 µM; in the assay with ACHN renal, 15.8 µM; in the assay with SR leukemia, 5.31 µM; in the assay with MDA-N, 5.7 µM; in the assay on NCI-H23 lung it was 4.49 µM; in the assay on PC-3 prostate, 12.6 µM. Moreover, the TGI with NCI-H226 lung came to 27.2 µM; in the assay on UACC-257 melanoma it was 3.77 µM; in the assay on SF-539 CNS it was 3.37 µM.
Regarding `c1ccc2c(c1)Sc1nccc3ccnc-2c13`, the TGI in the assay with T-47D breast is greater than 100 µM; in the assay on ACHN renal, 43.4 µM; in the assay on SR leukemia, greater than 100 µM; in the assay on MDA-N, greater than 100 µM; in the assay on NCI-H23 lung, greater than 100 µM; with MOLT-4 leukemia, 56.6 µM. In addition, the TGI in the assay with PC-3 prostate, in the assay with NCI-H226 lung, with UACC-257 melanoma and in the assay on SF-539 CNS was greater than 100 µM each time.
With `CCCCC1=C(C(=O)N2CCOCC2)C2(OCCO2)C1=O`, the TGI with T-47D breast was greater than 100 µM; with ACHN renal, 34.8 µM; with SR leukemia it was greater than 100 µM; in the assay on MDA-N, 71.2 µM; in the assay with NCI-H23 lung it was 51.1 µM; in the assay with MOLT-4 leukemia, greater than 100 µM. For the same molecule, the TGI stood at 98.3 µM with PC-3 prostate, 20.5 µM in the assay on NCI-H226 lung, 89.9 µM in the assay with UACC-257 melanoma and 46.5 µM in the assay with SF-539 CNS.
As to `CC(=O)OCC1OC(n2c(-c3ccccc3)c(N=Nc3ccccc3)c(C)c(C#N)c2=S)C(OC(C)=O)C(OC(C)=O)C1OC(C)=O` (configuration not stated), the TGI in the assay with T-47D breast, with ACHN renal, in the assay on SR leukemia, in the assay on MDA-N, in the assay with NCI-H23 lung and in the assay with MOLT-4 leukemia was greater than 100 µM throughout. Also, the TGI in the assay on PC-3 prostate, with UACC-257 melanoma and in the assay on SF-539 CNS was greater than 100 µM each time.
Consider `CC1C(NNc2ccccc2)Oc2cc3c(cc2C1c1ccccc1O)OCO3` (configuration not stated), for which the TGI with T-47D breast was 16.2 µM; in the assay with ACHN renal, 13.1 µM; with SR leukemia, 11.6 µM; with MDA-N, 18.4 µM; in the assay with NCI-H23 lung, 26.5 µM; in the assay with MOLT-4 leukemia it was 19.2 µM. The TGI in the assay with PC-3 prostate was 21.5 µM; in the assay on NCI-H226 lung it was 33.2 µM; in the assay on UACC-257 melanoma, 20.5 µM; in the assay on SF-539 CNS it was 4.56 µM.
Regarding `O=C(CCc1cc(O)cc(O)c1)NCCCNC(=O)CCc1cc(O)cc(O)c1`, the TGI in the assay with T-47D breast, in the assay with ACHN renal, in the assay on SR leukemia, in the assay on MDA-N, in the assay on NCI-H23 lung and in the assay on MOLT-4 leukemia was greater than 100 µM in each case. For the same molecule, the TGI in the assay with PC-3 prostate, in the assay with NCI-H226 lung, with UACC-257 melanoma and in the assay on SF-539 CNS was greater than 100 µM throughout.
Take `Nc1nc(Cl)cc(NCC2(O)CC2)n1`: the TGI in the assay with T-47D breast, in the assay with ACHN renal, in the assay with SR leukemia, with MDA-N, in the assay with NCI-H23 lung and with MOLT-4 leukemia was greater than 100 µM each time. Moreover, the TGI in the assay on PC-3 prostate, in the assay on NCI-H226 lung, with UACC-257 melanoma and in the assay with SF-539 CNS was greater than 100 µM in each case.
For `O=C1C=CC(=O)c2c(O)c(N3CCC[C@H]3CO)c(Cl)c(O)c21`, the TGI in the assay on T-47D breast came out at 4.57 µM; in the assay on ACHN renal, 4.53 µM; in the assay with SR leukemia it was 1.4 µM; in the assay on MDA-N it was 3.51 µM; in the assay on NCI-H23 lung, 4.61 µM; in the assay with MOLT-4 leukemia, 1.95 µM. The TGI in the assay on PC-3 prostate is greater than 10 µM; in the assay on NCI-H226 lung, greater than 10 µM; with UACC-257 melanoma, 1.92 µM; with SF-539 CNS, greater than 10 µM.
As for `CC1CCC2(NC1)OC1CC3C4CC=C5CC(OC6OC(CO)C(OC7OC(C)C(O)C(O)C7O)C(O)C6OC6OC(C)C(O)C(O)C6O)CCC5(C)C4CCC3(C)C1C2C` (configuration not stated), the TGI with T-47D breast stood at 29 µM; with ACHN renal, 14.6 µM; in the assay with SR leukemia it was 27.8 µM; in the assay with MDA-N, 4.99 µM; with NCI-H23 lung, 27.1 µM; with MOLT-4 leukemia, 26.7 µM. For the same molecule, the TGI with PC-3 prostate came to 4.28 µM; in the assay with NCI-H226 lung, 7.97 µM; in the assay on UACC-257 melanoma it was 6.67 µM; in the assay on SF-539 CNS, 8.75 µM.
For `CCOc1ccc(Nc2nc(N)nc(N)c2N)cc1`, the TGI in the assay on T-47D breast was 54.3 µM; in the assay with ACHN renal, greater than 100 µM; in the assay on SR leukemia, 59.3 µM; in the assay with MDA-N it was 13.3 µM; in the assay with NCI-H23 lung, greater than 100 µM; in the assay with MOLT-4 leukemia it was greater than 100 µM. Moreover, the TGI in the assay on PC-3 prostate was greater than 100 µM; in the assay on NCI-H226 lung it was greater than 100 µM; with UACC-257 melanoma, greater than 100 µM; in the assay with SF-539 CNS, 46.3 µM.
For the molecule `COc1cc(C(=O)Oc2ccc3c(c2)OCO3)cc(OC)c1OC`, the TGI in the assay on T-47D breast, in the assay with ACHN renal, in the assay on SR leukemia, with MDA-N, with NCI-H23 lung and with MOLT-4 leukemia was greater than 100 µM in each case. In addition, the total growth inhibition concentration (TGI) in the assay on PC-3 prostate, with NCI-H226 lung, with UACC-257 melanoma and in the assay on SF-539 CNS was greater than 100 µM throughout.
On to `Cc1c(CN2CCN(C)CC2)c(CN2CCN(C)CC2)c(C)n1-c1ccc(Cl)cc1`, for which the TGI in the assay with T-47D breast was 46.4 µM; in the assay on ACHN renal, greater than 100 µM; in the assay with SR leukemia it was 40.8 µM; with MDA-N, 58.5 µM; with NCI-H23 lung, greater than 100 µM; in the assay on MOLT-4 leukemia, 82.8 µM. For the same molecule, the TGI is greater than 100 µM with PC-3 prostate, greater than 100 µM in the assay on NCI-H226 lung and 29.1 µM in the assay on UACC-257 melanoma.
Turning to `COc1ccc2nc(/C(N)=C\C#N)ccc2c1`, the TGI with T-47D breast was 76.2 µM; in the assay on ACHN renal it was greater than 100 µM; with SR leukemia, greater than 100 µM; with MDA-N, greater than 100 µM; in the assay on NCI-H23 lung, greater than 100 µM; in the assay on MOLT-4 leukemia, 88.5 µM. Also, the TGI in the assay on PC-3 prostate, in the assay on NCI-H226 lung, with UACC-257 melanoma and with SF-539 CNS was greater than 100 µM each time.

Values taken from PubChem BioAssay (NCI).
